pKi: −log10 of the molar value.
Tests used:
[1] = biological target: T1, human recombinant 5-HT2A receptor (Homo sapiens, UniProt P28223); assay: Test Example 1-2: 5-HT2A receptor binding inhibition test ([3H]-Ketanserin; non-specific ligand Ketanserin); conditions: [3H]-Ketanserin; non-specific binding with 500 µmol/L Ketanserin; room temperature (25°C), 1.5 hours; read-out: h 5-HT2A Ki
T1 construct: expressed in transfected cells; host or cells: Jump-In HEK cells (membrane preparation)
Outline: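 Membranes expressing the receptor were incubated with [3H]-ketanserin and compound for 1.5 h at 25 °C, then filtered onto plates presoaked in 50 mmol/L Tris-HCl pH 7.4 and scintillation-counted. Non-specific binding was defined with 500 µmol/L unlabeled ketanserin. Ki was taken from dose-response curves, with Kd set for each membrane lot by Scatchard analysis.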

[2] = biological target: T2, human recombinant 5-HT2C receptor (Homo sapiens, UniProt P28335); assay: Test Example 2: 5-HT2C receptor binding inhibition test ([3H]-Mesulergine; non-specific ligand Serotonin HCl); conditions: human serotonin 5-HT2C receptor binding activity
T2 construct: expressed in transfected cells; host or cells: Jump-In HEK cells (membrane preparation)
T2 sequence (P28335 33-458): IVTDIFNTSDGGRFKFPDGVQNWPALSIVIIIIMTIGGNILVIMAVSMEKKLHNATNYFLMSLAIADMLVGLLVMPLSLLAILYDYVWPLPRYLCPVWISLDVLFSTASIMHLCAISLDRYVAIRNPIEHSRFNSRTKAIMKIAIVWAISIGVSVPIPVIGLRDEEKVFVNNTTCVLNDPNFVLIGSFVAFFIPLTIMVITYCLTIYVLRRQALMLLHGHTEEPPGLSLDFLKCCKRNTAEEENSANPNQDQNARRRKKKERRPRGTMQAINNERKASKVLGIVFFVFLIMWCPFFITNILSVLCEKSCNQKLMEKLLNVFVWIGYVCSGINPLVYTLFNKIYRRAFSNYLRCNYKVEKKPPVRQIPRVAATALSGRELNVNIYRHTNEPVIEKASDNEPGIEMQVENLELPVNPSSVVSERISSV
Outline: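 Filtration binding to membranes bearing human 5-HT2C with [3H]-mesulergine, 2 h at 37°C; non-specific binding defined with 500 µmol/L serotonin HCl, total binding with vehicle. Inhibition rate computed from cpm; Ki derived from dose-response curve, with ligand Kd from Scatchard analysis of saturation binding.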

T1 sequence (P28223 whole entry): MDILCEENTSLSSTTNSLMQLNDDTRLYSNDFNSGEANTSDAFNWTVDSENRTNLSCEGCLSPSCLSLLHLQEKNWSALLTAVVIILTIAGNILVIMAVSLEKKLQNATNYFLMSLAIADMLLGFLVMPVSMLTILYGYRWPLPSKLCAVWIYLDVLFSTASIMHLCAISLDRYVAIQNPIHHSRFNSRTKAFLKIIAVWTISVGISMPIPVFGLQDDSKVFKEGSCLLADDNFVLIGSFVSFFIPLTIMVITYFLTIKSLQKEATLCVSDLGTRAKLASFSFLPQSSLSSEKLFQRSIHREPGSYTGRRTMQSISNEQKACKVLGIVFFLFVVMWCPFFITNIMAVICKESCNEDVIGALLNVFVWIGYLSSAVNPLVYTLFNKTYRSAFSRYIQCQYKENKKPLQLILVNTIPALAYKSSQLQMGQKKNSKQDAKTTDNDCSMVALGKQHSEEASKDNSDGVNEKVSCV

| pKi [1] | pKi [2] | SMILES |
| --- | --- | --- |
| 9.04 | 8.43 | Cc1nc(C)c(-c2cc(Nc3ccc(-c4ccc(C(F)(F)F)cn4)cn3)ncc2OCCO)c(C)n1 [Compound I-314] |
| 8.92 | 8.98 | Cc1nc(C)c(-c2cc(Nc3ccc(-c4ccc(C(F)(F)F)nc4)cn3)ncc2OCCO)c(C)n1 [Compound I-315] |
| 9.30 | 9.06 | Cc1nc(C)c(-c2cc(Nc3ncc(-c4ccc(F)cc4)cc3F)ncc2OCCO)c(C)n1 [Compound I-316] |
| 9.34 | 8.16 | Cc1nc(C)c(-c2cc(Nc3ccc(-c4ccc(F)cc4)cn3)ncc2O[C@H](C)CO)c(C)n1 [Compound I-317] |
| 9.24 | 8.98 | Cc1nc(C)c(-c2cc(Nc3ncc(-c4ccc(F)cc4)cc3C)ncc2OCCO)c(C)n1 [Compound I-318] |
| 9.19 | 8.69 | Cc1nc(C)c(-c2cc(Nc3ncc(-c4ccc(C(F)(F)F)cc4)cn3)ncc2OCCO)c(C)n1 [Compound I-319] |
| 8.67 | 8.55 | COCc1nc(C)c(-c2cc(Nc3ncc(Br)cc3Cl)ncc2OCCO)c(C)n1 [Compound I-323] |
| 9.38 | 8.07 | COCc1nc(C)c(-c2cc(Nc3ccc(OCc4ccccc4)cn3)ncc2OCCO)c(C)n1 [Compound I-324] |
| 8.80 | 8.93 | COCc1nc(C)c(-c2cc(Nc3ncc(-n4ccc(C(F)(F)F)n4)cc3Cl)ncc2OCCO)c(C)n1 [Compound I-325] |
| 8.20 | 8.14 | COCc1nc(C)c(-c2cc(Nc3ncc(-c4ccn(C(F)F)n4)cc3Cl)ncc2OCCO)c(C)n1 [Compound I-326] |
| 8.62 | 8.57 | COCc1nc(C)c(-c2cc(Nc3ncc(-n4cc(C(F)F)cn4)cc3Cl)ncc2OCCO)c(C)n1 [Compound I-327] |
| 8.96 | 9.30 | COCc1nc(C)c(-c2cc(Nc3ncc(-c4nc(C(F)(F)F)cs4)cc3Cl)ncc2OCCO)c(C)n1 [Compound I-328] |
| 8.76 | 8.75 | COCc1nc(C)c(-c2cc(Nc3ncc(-n4ccc(Cl)n4)cc3Cl)ncc2OCCO)c(C)n1 [Compound I-330] |
| 8.72 | 8.78 | CCc1coc(-c2cnc(Nc3cc(-c4c(C)nc(COC)nc4C)c(OCCO)cn3)c(Cl)c2)n1 [Compound I-331] |
| 8.04 | 8.38 | COCc1nc(C)c(-c2cc(Nc3ncc(OCC(F)(F)C(F)F)cc3Cl)ncc2OCCO)c(C)n1 [Compound I-333] |
| 8.46 | 8.01 | COCc1nc(C)c(-c2nc(Nc3ccc(C(F)(F)F)cn3)c(F)cc2OCCO)c(C)n1 [Compound I-334] |
| 8.93 | 8.73 | COCc1nc(C)c(-c2cc(Nc3ncc(-c4ncc(C)s4)cc3Cl)ncc2OCCO)c(C)n1 [Compound I-335] |
| 9.65 | 9.13 | Cn1ncc(Br)c1-c1nc(Nc2ccc(C(F)(F)F)cc2)ncc1OCCO [Compound I-336] |
| 9.50 | 8.14 | Cn1ncc(Br)c1-c1nc(Nc2ccc(C(F)(F)F)cn2)ncc1OCCO [Compound I-337] |
| 9.20 | 8.51 | Cc1nc(C)c(-c2nc(Nc3ccc(OC(F)(F)F)cc3)ncc2OCCO)c(C)n1 [Compound I-357] |
| 9.22 | 8.24 | O=C1NCc2c1cccc2-c1cc(Nc2ncc(C(F)(F)F)cc2F)ncc1OCCO [Compound I-358] |
| 8.91 | 7.26 | O=C1OCc2c1cccc2-c1cc(Nc2ncc(C(F)(F)F)cc2F)ncc1OCCO [Compound I-360] |
| 8.62 | 7.74 | Cc1nc(C)c(-c2cc(Nc3ncc(C(F)(F)F)cc3F)ncc2O[C@H](C)CO)c(C)n1 [Compound I-361] |
| 8.63 | 8.56 | Cc1nc(C)c(-c2nc(Nc3ccc(-c4ccc(C(F)(F)F)nc4)cn3)c(F)cc2OCCO)c(C)n1 [Compound I-363] |

The remaining lines, values behind:

| SMILES | pKi [1] | pKi [2] |
| --- | --- | --- |
| Cn1ncc(Cl)c1-c1cc(Nc2ccc(OCC(F)F)cn2)ncc1OCCO [Compound I-320] | 9.53 | 8.10 |
| Cn1ncc(Cl)c1-c1cc(Nc2ncc(OCC(F)F)cc2F)ncc1OCCO [Compound I-321] | 9.52 | 8.44 |
| Cn1ncc(Cl)c1-c1cc(Nc2ncc(OCC(F)(F)F)cc2F)ncc1OCCO [Compound I-322] | 9.38 | 8.89 |
| COCc1nc(C)c(-c2cc(Nc3ncc(-c4ncc(C(F)(F)F)s4)cc3Cl)ncc2OCCO)c(C)n1 [Compound I-329] | 9.05 | 9.55 |
| COCc1nc(C)c(-c2cc(Nc3ncc(OC4CC(F)(F)C4)cc3Cl)ncc2OCCO)c(C)n1 [Compound I-332] | 8.25 | 8.51 |
| Cn1ncc(Br)c1-c1nc(Nc2ccc(C(F)(F)F)cc2F)ncc1OCCO [Compound I-338] | 9.65 | 9.12 |
| Cn1ncc(Br)c1-c1nc(Nc2ccc(Cl)cc2)ncc1OCCO [Compound I-339] | 9.66 | 8.60 |
| Cn1ncc(Br)c1-c1nc(Nc2ccc(Cl)cc2F)ncc1OCCO [Compound I-340] | 9.67 | 8.86 |
| Cc1cc(Cl)cnc1Nc1ccc(OCCO)c(-c2c(Br)cnn2C)c1 [Compound I-341] | 9.52 | 9.85 |
| Cn1ncc(Br)c1-c1nc(Nc2ccc(Cl)cc2Cl)ncc1OCCO [Compound I-342] | 9.59 | 8.73 |
| Cc1cc(Cl)ccc1Nc1ncc(OCCO)c(-c2c(Br)cnn2C)n1 [Compound I-343] | 9.74 | 8.62 |
| Cn1ncc(Br)c1-c1nc(Nc2ccc(Cl)c(Cl)c2)ncc1OCCO [Compound I-344] | 9.59 | 8.18 |
| Cn1ncc(Br)c1-c1nc(Nc2ccc(Cl)c(F)c2)ncc1OCCO [Compound I-345] | 9.59 | 8.51 |
| Cc1cc(OC(F)(F)F)ccc1Nc1ncc(OCCO)c(-c2c(Br)cnn2C)n1 [Compound I-346] | 9.62 | 8.77 |
| Cn1ncc(Br)c1-c1nc(Nc2ccc(OC(F)(F)F)cc2)ncc1OCCO [Compound I-347] | 9.58 | 8.97 |
| Cc1cc(Nc2ncc(OCCO)c(-c3c(Br)cnn3C)n2)ccc1Cl [Compound I-348] | 9.67 | 8.21 |
| Cn1ncc(Br)c1-c1nc(Nc2ccc(C(F)(F)F)nc2)ncc1OCCO [Compound I-349] | 9.60 | 7.32 |
| Cn1ncc(Br)c1-c1nc(Nc2ccc(Cl)c(C(F)(F)F)c2)ncc1OCCO [Compound I-350] | 9.69 | 8.19 |
| Cn1ncc(Br)c1-c1nc(Nc2ccc(C(F)(F)F)c(Cl)c2)ncc1OCCO [Compound I-351] | 9.62 | 8.75 |
| Cn1ncc(Br)c1-c1nc(Nc2ccc(C#N)cc2)ncc1OCCO [Compound I-352] | 9.69 | 8.22 |
| Cn1ncc(Br)c1-c1nc(Nc2ccc(OC(F)F)cc2)ncc1OCCO [Compound I-353] | 9.75 | 9.01 |
| Cn1ncc(Br)c1-c1nc(Nc2ccc(C#N)cc2F)ncc1OCCO [Compound I-354] | 9.50 | 8.07 |
| Cc1cc(C#N)ccc1Nc1ncc(OCCO)c(-c2c(Br)cnn2C)n1 [Compound I-355] | 9.40 | 8.09 |
| Cc1cnn(C)c1-c1nc(Nc2ccc(OC(F)(F)F)cc2)ncc1OCCO [Compound I-356] | 9.79 | 8.11 |
| C[C@H](CO)Oc1cnc(Nc2ncc(C(F)(F)F)cc2F)cc1-c1cccc2c1CNC2=O [Compound I-362] | 9.03 | 7.60 |
